≈ marks a conversion by molar mass, not a printed value.
Legend:
Format in all cases: functional
Aspergillus fumigatus = assay: Antifungal activity against Aspergillus fumigatus assessed as inhibition of fungal growth incubated for 24 hrs by CLSI based two serial dilution assay
Candida albicans [1] = assay: Antifungal activity against Candida albicans ATCC 90023 assessed as inhibition of fungal growth incubated for 24 hrs by CLSI based two serial dilution assay
Enterococcus faecalis = assay: Antibacterial activity against Enterococcus faecalis assessed as bacterial growth inhibition incubated for 24 hrs by CLSI based two serial dilution assay
Escherichia coli [2] = assay: Antibacterial activity against Escherichia coli 25922 assessed as bacterial growth inhibition incubated for 24 hrs by CLSI based two serial dilution assay
Candida parapsilosis = assay: Antifungal activity against Candida parapsilosis ATCC 22019 assessed as inhibition of fungal growth incubated for 24 hrs by CLSI based two serial dilution assay; conditions: Lodderomyces parapsilosis
Acinetobacter baumannii = assay: Antibacterial activity against Acinetobacter baumannii assessed as bacterial growth inhibition incubated for 24 hrs by CLSI based two serial dilution assay
Staphylococcus aureus [3] = assay: Antibacterial activity against Staphylococcus aureus assessed as bacterial growth inhibition incubated for 24 hrs by CLSI based two serial dilution assay
Staphylococcus aureus [4] = assay: Antibacterial activity against Staphylococcus aureus 25923 assessed as bacterial growth inhibition incubated for 24 hrs by CLSI based two serial dilution assay
Candida tropicalis = assay: Antifungal activity against Candida tropicalis assessed as inhibition of fungal growth incubated for 24 hrs by CLSI based two serial dilution assay
Escherichia coli [5] = assay: Antibacterial activity against Escherichia coli assessed as bacterial growth inhibition incubated for 24 hrs by CLSI based two serial dilution assay
Staphylococcus aureus [6] = assay: Antibacterial activity against methicillin-resistant Staphylococcus aureus assessed as bacterial growth inhibition incubated for 24 hrs by CLSI based two serial dilution assay
Klebsiella pneumoniae = assay: Antibacterial activity against Klebsiella pneumoniae assessed as bacterial growth inhibition incubated for 24 hrs by CLSI based two serial dilution assay
Staphylococcus aureus [7] = assay: Antibacterial activity against Staphylococcus aureus 29213 assessed as bacterial growth inhibition incubated for 24 hrs by CLSI based two serial dilution assay
Pseudomonas aeruginosa [8] = assay: Antibacterial activity against Pseudomonas aeruginosa assessed as bacterial growth inhibition incubated for 24 hrs by CLSI based two serial dilution assay
Pseudomonas aeruginosa [9] = assay: Antibacterial activity against Pseudomonas aeruginosa ATCC 27853 assessed as bacterial growth inhibition incubated for 24 hrs by CLSI based two serial dilution assay
Candida albicans [10] = assay: Antifungal activity against Candida albicans assessed as inhibition of fungal growth incubated for 24 hrs by CLSI based two serial dilution assay

Row | Compound | MIC (Aspergillus fumigatus) | MIC (Candida albicans [1]) | MIC (Enterococcus faecalis) | MIC (Escherichia coli [2]) | MIC (Candida parapsilosis) | MIC (Acinetobacter baumannii) | MIC (Staphylococcus aureus [3]) | MIC (Staphylococcus aureus [4]) | MIC (Candida tropicalis) | MIC (Escherichia coli [5]) | MIC (Staphylococcus aureus [6]) | MIC (Klebsiella pneumoniae) | MIC (Staphylococcus aureus [7]) | MIC (Pseudomonas aeruginosa [8]) | MIC (Pseudomonas aeruginosa [9]) | MIC (Candida albicans [10])
1 | CCCCN1C(=O)/C(=N\Nc2nc(C)c(C(C)=O)s2)c2ccccc21 | 512 µM (≈ 183 µg/mL) | 512 µM (≈ 183 µg/mL) | 512 µM (≈ 183 µg/mL) | 512 µM (≈ 183 µg/mL) | 512 µM (≈ 183 µg/mL) | 512 µM (≈ 183 µg/mL) | 16 µM (≈ 5.7 µg/mL) | 512 µM (≈ 183 µg/mL) | 512 µM (≈ 183 µg/mL) | 512 µM (≈ 183 µg/mL) | 512 µM (≈ 183 µg/mL) | 512 µM (≈ 183 µg/mL) | 16 µM (≈ 5.7 µg/mL) | 16 µM (≈ 5.7 µg/mL) | 512 µM (≈ 183 µg/mL) | 512 µM (≈ 183 µg/mL)
2 | CCCCN1C(=O)/C(=N\Nc2nccs2)c2cc(F)ccc21 | 4 µM (≈ 1.27 µg/mL) | 1 µM (≈ 0.318 µg/mL) | 4 µM (≈ 1.27 µg/mL) | 1 µM (≈ 0.318 µg/mL) | 1 µM (≈ 0.318 µg/mL) | 1 µM (≈ 0.318 µg/mL) | 4 µM (≈ 1.27 µg/mL) | 4 µM (≈ 1.27 µg/mL) | 4 µM (≈ 1.27 µg/mL) | 1 µM (≈ 0.318 µg/mL) | 2 µM (≈ 0.637 µg/mL) | 1 µM (≈ 0.318 µg/mL) | 1 µM (≈ 0.318 µg/mL) | 1 µM (≈ 0.318 µg/mL) | 4 µM (≈ 1.27 µg/mL) | 1 µM (≈ 0.318 µg/mL)
3 | O=C1/C(=N\Nc2nccs2)c2ccccc2N1Cc1ccccc1F | 128 µM (≈ 45.1 µg/mL) | 128 µM (≈ 45.1 µg/mL) | 8 µM (≈ 2.82 µg/mL) | 256 µM (≈ 90.2 µg/mL) | 128 µM (≈ 45.1 µg/mL) | 512 µM (≈ 180 µg/mL) | 4 µM (≈ 1.41 µg/mL) | 4 µM (≈ 1.41 µg/mL) | 16 µM (≈ 5.64 µg/mL) | 512 µM (≈ 180 µg/mL) | 8 µM (≈ 2.82 µg/mL) | 512 µM (≈ 180 µg/mL) | 256 µM (≈ 90.2 µg/mL) | 256 µM (≈ 90.2 µg/mL) | 512 µM (≈ 180 µg/mL) | 64 µM (≈ 22.6 µg/mL)
4 | O=C1/C(=N\Nc2nccs2)c2ccccc2N1Cc1cccc(F)c1 | 128 µM (≈ 45.1 µg/mL) | 32 µM (≈ 11.3 µg/mL) | 8 µM (≈ 2.82 µg/mL) | 256 µM (≈ 90.2 µg/mL) | 32 µM (≈ 11.3 µg/mL) | 256 µM (≈ 90.2 µg/mL) | 4 µM (≈ 1.41 µg/mL) | 16 µM (≈ 5.64 µg/mL) | 16 µM (≈ 5.64 µg/mL) | 512 µM (≈ 180 µg/mL) | 64 µM (≈ 22.6 µg/mL) | 256 µM (≈ 90.2 µg/mL) | 4 µM (≈ 1.41 µg/mL) | 128 µM (≈ 45.1 µg/mL) | 128 µM (≈ 45.1 µg/mL) | 64 µM (≈ 22.6 µg/mL)
5 | O=C1/C(=N\Nc2nccs2)c2ccccc2N1Cc1ccc(Cl)cc1 | 16 µM (≈ 5.9 µg/mL) | 32 µM (≈ 11.8 µg/mL) | 64 µM (≈ 23.6 µg/mL) | 32 µM (≈ 11.8 µg/mL) | 4 µM (≈ 1.48 µg/mL) | 64 µM (≈ 23.6 µg/mL) | 4 µM (≈ 1.48 µg/mL) | 4 µM (≈ 1.48 µg/mL) | 16 µM (≈ 5.9 µg/mL) | 128 µM (≈ 47.2 µg/mL) | 64 µM (≈ 23.6 µg/mL) | 32 µM (≈ 11.8 µg/mL) | 4 µM (≈ 1.48 µg/mL) | 16 µM (≈ 5.9 µg/mL) | 128 µM (≈ 47.2 µg/mL) | 16 µM (≈ 5.9 µg/mL)
6 | CCCN1C(=O)/C(=N\Nc2nccs2)c2ccccc21 | 16 µM (≈ 4.58 µg/mL) | 128 µM (≈ 36.7 µg/mL) | 16 µM (≈ 4.58 µg/mL) | 4 µM (≈ 1.15 µg/mL) | 32 µM (≈ 9.16 µg/mL) | 32 µM (≈ 9.16 µg/mL) | 16 µM (≈ 4.58 µg/mL) | 4 µM (≈ 1.15 µg/mL) | 32 µM (≈ 9.16 µg/mL) | 128 µM (≈ 36.7 µg/mL) | 32 µM (≈ 9.16 µg/mL) | 32 µM (≈ 9.16 µg/mL) | 4 µM (≈ 1.15 µg/mL) | 2 µM (≈ 0.573 µg/mL) | 32 µM (≈ 9.16 µg/mL) | 64 µM (≈ 18.3 µg/mL)
7 | CCCCN1C(=O)/C(=N\Nc2nccs2)c2cccc(F)c21 | 256 µM (≈ 81.5 µg/mL) | 4 µM (≈ 1.27 µg/mL) | 2 µM (≈ 0.637 µg/mL) | 1 µM (≈ 0.318 µg/mL) | 4 µM (≈ 1.27 µg/mL) | 0.5 µM (≈ 0.159 µg/mL) | 16 µM (≈ 5.09 µg/mL) | 1 µM (≈ 0.318 µg/mL) | 1 µM (≈ 0.318 µg/mL) | 4 µM (≈ 1.27 µg/mL) | 4 µM (≈ 1.27 µg/mL) | 1 µM (≈ 0.318 µg/mL) | 16 µM (≈ 5.09 µg/mL) | 1 µM (≈ 0.318 µg/mL) | 1 µM (≈ 0.318 µg/mL) | 32 µM (≈ 10.2 µg/mL)
8 | CCCCN1C(=O)/C(=N\Nc2nccs2)c2cc(Cl)ccc21 | 4 µM (≈ 1.34 µg/mL) | 2 µM (≈ 0.67 µg/mL) | 32 µM (≈ 10.7 µg/mL) | 0.5 µM (≈ 0.167 µg/mL) | 0.5 µM (≈ 0.167 µg/mL) | 1 µM (≈ 0.335 µg/mL) | 1 µM (≈ 0.335 µg/mL) | 1 µM (≈ 0.335 µg/mL) | 16 µM (≈ 5.36 µg/mL) | 1 µM (≈ 0.335 µg/mL) | 1 µM (≈ 0.335 µg/mL) | 0.5 µM (≈ 0.167 µg/mL) | 1 µM (≈ 0.335 µg/mL) | 0.5 µM (≈ 0.167 µg/mL) | 0.5 µM (≈ 0.167 µg/mL) | 0.5 µM (≈ 0.167 µg/mL)
9 | CCCCN1C(=O)/C(=N\Nc2nccs2)c2cc(OC)ccc21 | 32 µM (≈ 10.6 µg/mL) | 32 µM (≈ 10.6 µg/mL) | 4 µM (≈ 1.32 µg/mL) | 4 µM (≈ 1.32 µg/mL) | 16 µM (≈ 5.29 µg/mL) | 16 µM (≈ 5.29 µg/mL) | 32 µM (≈ 10.6 µg/mL) | 16 µM (≈ 5.29 µg/mL) | 128 µM (≈ 42.3 µg/mL) | 16 µM (≈ 5.29 µg/mL) | 8 µM (≈ 2.64 µg/mL) | 128 µM (≈ 42.3 µg/mL) | 16 µM (≈ 5.29 µg/mL) | 4 µM (≈ 1.32 µg/mL) | 32 µM (≈ 10.6 µg/mL) | 64 µM (≈ 21.1 µg/mL)
10 | CCCCN1C(=O)/C(=N\Nc2nc(-c3ccc(F)cc3F)cs2)c2ccccc21 | 512 µM (≈ 211 µg/mL) | 512 µM (≈ 211 µg/mL) | 512 µM (≈ 211 µg/mL) | 512 µM (≈ 211 µg/mL) | 512 µM (≈ 211 µg/mL) | 512 µM (≈ 211 µg/mL) | 4 µM (≈ 1.65 µg/mL) | 512 µM (≈ 211 µg/mL) | 512 µM (≈ 211 µg/mL) | 512 µM (≈ 211 µg/mL) | 512 µM (≈ 211 µg/mL) | 512 µM (≈ 211 µg/mL) | 4 µM (≈ 1.65 µg/mL) | 2 µM (≈ 0.825 µg/mL) | 512 µM (≈ 211 µg/mL) | 512 µM (≈ 211 µg/mL)

From ChEMBL document CHEMBL5370535, “Thiazolyl hydrazineylidenyl indolones as unique potential multitargeting broad-spectrum antimicrobial agents” (Eur J Med Chem, 2023)
